Results from US12577256B2, “Aryl receptor modulators and methods of making and using the same” (Nogra Pharma Limited, priority 2014, dated 2026).

Experiments:
AhR = target: T1, AhR (Homo sapiens, UniProt P35869); settings: cited from earlier work
T1 sequence (P35869 11-848): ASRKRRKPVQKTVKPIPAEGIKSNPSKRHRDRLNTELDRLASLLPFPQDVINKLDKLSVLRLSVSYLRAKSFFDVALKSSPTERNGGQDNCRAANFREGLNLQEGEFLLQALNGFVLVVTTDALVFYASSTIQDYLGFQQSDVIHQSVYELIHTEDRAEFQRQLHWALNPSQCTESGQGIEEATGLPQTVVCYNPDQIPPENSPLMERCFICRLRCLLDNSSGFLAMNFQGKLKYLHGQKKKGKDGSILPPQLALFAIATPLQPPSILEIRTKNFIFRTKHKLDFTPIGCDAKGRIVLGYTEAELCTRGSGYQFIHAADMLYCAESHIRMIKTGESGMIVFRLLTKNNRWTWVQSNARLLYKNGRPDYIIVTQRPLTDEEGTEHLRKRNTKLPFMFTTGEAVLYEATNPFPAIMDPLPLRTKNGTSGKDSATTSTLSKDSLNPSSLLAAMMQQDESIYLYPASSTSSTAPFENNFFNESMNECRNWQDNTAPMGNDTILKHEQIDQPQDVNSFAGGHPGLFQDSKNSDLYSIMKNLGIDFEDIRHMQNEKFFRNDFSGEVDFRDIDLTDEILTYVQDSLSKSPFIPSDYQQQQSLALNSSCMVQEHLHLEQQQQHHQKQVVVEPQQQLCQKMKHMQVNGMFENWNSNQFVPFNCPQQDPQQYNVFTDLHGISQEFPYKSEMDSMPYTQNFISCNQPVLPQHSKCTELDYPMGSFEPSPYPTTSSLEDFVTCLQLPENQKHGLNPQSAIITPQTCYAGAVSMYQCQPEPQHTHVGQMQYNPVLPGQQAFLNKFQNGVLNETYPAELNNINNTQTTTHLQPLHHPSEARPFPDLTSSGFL

[1] = cited from earlier work
IFN-γ = IFN-γ RNA expression in anti-CD3/anti-CD28 stimulated PBMC (real-time PCR); format: cell-based, human; settings: anti-CD3/anti-CD28, 100, 200 or 400 nM compound, 24 hours, RNA (FIG. 24)
Procedure: (§1) Peripheral blood mononuclear cells (PBMC), isolated from 3 healthy subjects, were isolated by density gradient centrifugation (Lymphoprep; Nycomed Pharma) from 5 mL heparinized blood samples. PBMC were resuspended in RPMI 1640 supplemented with 10% fetal calf serum at a concentration of 1×10^6 cells/mL, cultured in 24-well culture plates (Falcon Plastic) and stimulated with medium alone or anti-CD3/anti-CD28 (Miltenyi Biotec) antibodies with or without 100, 200, or 400 nM of AhR binding compounds (02, 04, 13, 15, 17, or 24), dimethyl sulfoxide or 6-formylindolo[3,2-b]cathazole (Ficz, 200 nM). Total RNA was extracted from cells cultured for 24 hours. For RNA preparation, cells were lysed in 1 mL of guanidium thiocyanate buffer and subjected to phenol/chloroform extraction using TRizol reagent (Invitrigen). The sample obtained was quantitated by absothance at 260 nm and complementary DNA (cDNA) was synthetized from […] of total RNA. cDNA was amplified using the following conditions: denaturation for 1 minute at 95° C.; annealing for 30 seconds at 58° C. for IFN-γ, and 60° C. for f3-actin; and followed by 30 seconds of extension at 72° C. […] IL-22 was evaluated using commercially available TaqMan probes (Applied Biosystems). β-actin (forward (SEQ ID NO. 3) 5′-[…]-3′, reverse (SEQ ID NO.4) 5′-[…]-3′) was used as a housekeeping gene. Gene expression was calculated using the AACt algorithm.

IL-22 = IL-22 RNA expression in anti-CD3/anti-CD28 stimulated PBMC (real-time PCR); format: cell-based, human; settings: anti-CD3/anti-CD28, 100, 200 or 400 nM compound, 24 hours, RNA (FIG. 24)
Procedure: as §1

| SMILES | activation of the AhR (AhR) | anti-inflammatory properties in vivo [1] | production of IFN-γ (IFN-γ) | production of IL-22 (IL-22) |
| --- | --- | --- | --- | --- |
| Cc1oncc1C(=O)Nc1ccc(C(F)(F)F)cc1 [Leflunomide] | activates | – | – | – |
| C=CCn1nc(-c2ccc(OC)c(OC)c2)c2cccc(C(F)(F)F)c21 [SGA 360] | – | exhibits anti-inflammatory properties in vivo | – | – |
| COc1ccc(Cc2nc3ccc(C(F)(F)F)cc3s2)cc1OC [compound 15, 2-(3,4-dimethoxybenzyl)-6-(trifluoromethyl)benzo[d]thiazole] | – | – | decreasing | strongly increases |
| COc1cc(Nc2nc3ccccc3[nH]2)cc(OC)c1OC [compound 17, N (3,4,5-trimethoxyphenyl)-1H-benzo[d]imidazol-2-amine] | – | – | decreasing | strongly increases |
